Measurements reported in patent US4203986A, “M-Trifluoro-methylphenyl-piperazine” (Metabio-Joullie, priority 1977, dated 1980).
Where two headings read alike, the source gives them in different places.

Key:
[1] = Acute toxicity in Mice; type: in vivo, mice (SWISS, EOPS, NMRI/Han, female); conditions: for LD50 at 360 h / MTD at 360 h: mouse, in vivo; for LD50 at 360 h: method of KARBER and BEHRENS; for MTD at 360 h: read-out: LD 0 (maximum dose tolerated)
Procedure: The compounds are administered in increasing doses (in arithmetic progression) to groups of five .female. SWISS, EOPS, NMRI/Han mice of the EVIC CEBA strain and having a mean weight of 22 g.
For intravenous administration the compounds are dissolved in distilled water, for oral administration they are suspended in 10% gum arabic solution (volume administered: 0.5 ml/22 g body weight).
The LD 50's are calculated according to the method of KARBER and BEHRENS (B.) (Arch. Exp. Path. Pharmakol. 1935, 177, 379-388).
For each administration method, there is indicated:
LD 0 or maximum dose tolerated.
LD 100 or minimum lethal dose.
The number of animals surviving in the different groups is definitively verified 15 days after administrating the compounds.

[2] = system: toxicity of amphetamine compounds; experiment: Action on the toxicity of Amphetamine compounds in the mice; type: in vivo; conditions: per os
Procedure: (6) Action on the toxicity of Amphetamine compounds in the mice. (groups of 10 animals)
30 minutes after administration of the test compounds, amphetamine bitartrate is injected interperitioeally at a dose of 10 mg/kg (dose giving substantially 100% mortality) to mice in groups of 10 in boxes 12×18×13 cm. The number of animals surviving 24 hours after the amphetamine administration is noted.

[3] = Test on the cataleptic action in rats; type: in vivo; conditions: p.o., every 30 minutes for 6 hours
Procedure: (7) Test on the cataleptic action in rats (groups of 5 animals)
After administration p.o. of the test compounds, the degree of catalepsy is noted every 30 minutes for 6 hours by the test of crossing of the homolateral feet according to BOISSIER (J.R.) and SIMON (P.) (Therapy, 1963, 18, 1257-1277) and using the following notation:
0=animal which is not cataleptic
132 animal conserving position on one side only
2=animal conserving position on both sides

[4] = system: coughing induced by aqueous citric acid aerosol; experiment: Antitussive action in the guinea pig (citric acid aerosol); type: in vivo
Excerpt: The technique used is that of SIECKMANN (W.) (in "Notions techniques de Pharmacologie generale" by Michel COLOT, page 75, Masson, Edit, 1972).
The guinea pigs .female. of mean weight 400 g, unanaesthesised, are subjected to the tussigenic effect of aerosols of a 7.5% aqueous citric acid solution. The animals are placed one by one in a cylindrical chamber having at its two extremities two canals, one serving as entrance for the aerosol and the other as its exit.
On the exit tube there is a lateral connection to a MERCURY gas pressure differential gauge joined to an RACIA counter. An adjustable screw clamp placed on the exit tube downstream of the lateral canal permits regulation of the sensitivity of the system such that the normal respiration of the animal only registers very weakly and that displacement of air in the chamber provoked by coughing attack is recorded clearly in the form of vertical traces.
Each guinea pig is first submitted to a control test for 5 minutes. One hour later it receives the test compound. It is replaced in the chamber for 5 minutes, 1 hour after oral administration of the compound.
The number of coughing attacks before and after administration is counted and the percentage inhibition is calculated.

[5] = system: coughing by stimulation of the superior larynx nerve; experiment: Antitussive action in the cat (stimulation of the superior larynx nerve); type: in vivo
Procedure: The cats all thriving, male or female of weight between 1.5 and 2.5 kg (test on 10 cats) are anaesthesised by nembutal at a dose of 30 mg/kg interperitoneally.
A cannula having three branches is placed in the trachea. Two of the branches are connected to a device for registering intratracheal pressure (MERCURY gas pressure gauge connected to an RACIA polygraph) The third branch allows elimination of part of the respiratory volume.
A cannula is placed in the femoral vein for administration of the test substances.
The stimulation parameters are as follows: frequency: 5 cycles per sec, amplitude: 5 millisec, voltage: 4 to 6 volts, duration: 15 to 45 sec. (according to the sensitivity of the animal).
There are carried a minimum of 3 stimulations spaced by 5 minutes and provoking coughing attacks of the same severity. The compound is then administered intravenously. The stimulation is then carried out every 5 minutes. If the compound reduces or suppresses the coughing the stimulation is continued until the reappearance of coughing to approximately the same degree as the initial coughing.
The results are expressed as a percentage reduction in the number of coughs.

Row | Structure (SMILES) | LD 100 (minimum lethal dose) ([1]; intravenous administration) | LD50 at 360 h ([1]; iv, intravenous administration) | MTD at 360 h ([1]; iv, intravenous administration) | LD50 at 360 h ([1]; po, oral administration) | MTD at 360 h ([1]; po, oral administration) | LD 100 (minimum lethal dose) ([1]; oral administration) | cataleptic effect [3] | further results
1 | O=C1CCCC1CN1CCN(c2cccc(C(F)(F)F)c2)CC1 (centres unmarked) [LJ 1160] | 87.5 mg/kg | 74 mg/kg | 62.5 mg/kg | 975 mg/kg | 500 mg/kg | 1500 mg/kg | absence of cataleptic effect | toxicity of amphetamine compounds (in words) [2]: reduce the toxicity of amphetamine compounds; inhibition in vivo at 100 mg/kg ([4]; Cavia porcellus, po, 1 h, 100 mg/kg p.o., read-out: Percentages of inhibition of coughing): 50%
2 | OC1CCCCC1CN1CCN(c2cccc(C(F)(F)F)c2)CC1 (centres unmarked) [LJ 1161, 2-[4-(m-Trifluoromethylphenyl)-piperazino]-methyl-cyclohexanol] | 87.5 mg/kg | 66 mg/kg | 50 mg/kg | 1500 mg/kg | 750 mg/kg | 2000 mg/kg | absence of cataleptic effect | inhibition in vivo at 150 mg/kg ([4]; Cavia porcellus, po, 1 h, 150 mg/kg p.o., read-out: Percentages of inhibition of coughing): 75%
3 | O=C(CN1CCN(c2cccc(C(F)(F)F)c2)CC1)CN1CCN(c2cccc(C(F)(F)F)c2)CC1 [LJ 1163] | 22.5 mg/kg | 18 mg/kg | 12.5 mg/kg | 180 mg/kg | 125 mg/kg | 250 mg/kg |  | % maximum reduction in the number of coughs ([5]; 1.8 mg/kg i.v.): 50%; Delay in the disappearance of protective effect ([5]; 1.8 mg/kg i.v.): Fleeting; % maximum reduction in the number of coughs ([5]; 3.6 mg/kg i.v.): 62%; inhibition in vivo at 9 mg/kg ([4]; Cavia porcellus, po, 1 h, 9 mg/kg p.o., read-out: Percentages of inhibition of coughing): 64%; inhibition in vivo at 18 mg/kg ([4]; Cavia porcellus, po, 1 h, 18 mg/kg p.o., read-out: Percentages of inhibition of coughing): 78%; antitussive activity (in words) ([4]; oral): also active if not more active than codeine
4 | O=C1CCCCCC1CN1CCN(c2cccc(C(F)(F)F)c2)CC1 (centres unmarked) [LJ 1176, 2-[4-(m-Trifluoromethylphenyl)-piperazino]-methyl-cycloheptanone] |  |  |  | 1950 mg/kg | 1500 mg/kg | 2500 mg/kg | absence of cataleptic effect | inhibition in vivo at 200 mg/kg ([4]; Cavia porcellus, po, 1 h, 200 mg/kg p.o., read-out: Percentages of inhibition of coughing): 78%
5 | OCCN1CCN(c2ccc(F)c(C(F)(F)F)c2)CC1 [LJ 1195, 2-[4-(3-Trifluoromethyl-4-fluorophenyl)-piperazino]-ethanol] |  |  |  | 844 mg/kg | 300 mg/kg | 1250 mg/kg |  | 
6 | O=C1CCCCC1CN1CCN(c2ccc(F)c(C(F)(F)F)c2)CC1 (centres unmarked) [LJ 1196, 2-[4-(3-Trifluoromethyl-4-fluorophenyl)-piperazino]-methyl-cyclohexanone] |  |  |  | 937 mg/kg | 625 mg/kg | 1250 mg/kg |  | 
7 | OC(CN1CCN(c2ccc(F)c(C(F)(F)F)c2)CC1)CN1CCN(c2ccc(F)c(C(F)(F)F)c2)CC1 [LJ 1198, 1,3-bis[4-(3-Trifluoromethyl-4-fluorophenyl)-piperazino)-propan-2-ol] |  |  |  | 225 mg/kg | 50 mg/kg | 400 mg/kg |  | inhibition in vivo at 22 mg/kg ([4]; Cavia porcellus, po, 1 h, 22 mg/kg p.o., read-out: Percentages of inhibition of coughing): 50%
